Read-outs that look alike come from different tables or passages of the source.

Data on 30 compounds can be found in US10028992B2, “Methods of treating muscular dystrophy” (BOARD OF REGENTS OF THE NEVADA SYSTEM OF HIGHER EDUCATION …, priority 2012, dated 2018).

For this assay, the system named is α7 integrin promoter. The assay is described as follows: muscle cell-based assay: α7βgal+/− myoblasts/myotubes, LacZ reporter, β-galactosidase cleavage of FDG. Also on record: species or system mouse. Conditions: for EC50: Mus musculus, read-out: Fit LogAC50 (converted). The method, then: An α7 integrin null mouse was produced in which exon 1 of the gene encoding the α7 integrin was replaced by the LacZ reporter. In these mice, all the transcriptional regulatory elements of the α7 integrin promoter were retained, allowing β-galactosidase to report expression of 7 integrin. A primary myoblast cell line (designated α7βgal^+/−) isolated from 10 day old α7^+/− pups were analyzed for the ability of β-galactosidase to report α7 integrin expression. α7βgal^+/− myoblasts were differentiated and subjected to X-gal staining and western analysis (FIGS. 1A and 1B).
The activity of the α7 integrin promoter was measured by β-galactosidase cleavage of the non-fluorescent compound fluorescein di-β-D-galactopyranoside (FDG) to fluorescein. This assay was used to screen compound libraries to identify molecules that up-regulate α7 integrin expression in muscle.
Also evaluated was the effect of various isoforms of laminin and the ligand for α7β1 integrin on integrin expression. Positive hits were subjected to dose-response analysis, western analysis and a myostatin counterscreen (a negative regulator of muscle growth).

[1] abbreviates: given as log AC50 (negative values).
[2] abbreviates: curve class number, key not given.
[3] abbreviates: curve fit, activity at zero concentration.

Turning to `Cc1ccc(-c2csc(Nc3ccc(C(=O)O)cc3)[n+]2Cc2ccccc2)cc1.[Br-]` [Compound 126], the EC50 under setting [1] is 8.91 µM. This compound gave a Score (Table 12 compound data) of 43. Moreover, the “Fit Curve Class” value under setting [2] is 2.1. Further, the “Fit HillSlope” value (curve fit) amounted to 1. Under setting [3], the “Fit Zero Activity [%]” value stood at 0.673%.
The like results for `Cc1cc(-c2ccccc2)n2nc(N)nc2n1` [Compound 127] were, in that order, 12.6 µM, 43, 2.1, 4.5045 and −18.9102%.
The like results for `O=C(N/N=C/c1cn[nH]c1-c1ccc(F)cc1)c1ccncc1` [Compound 128] were, in that order, 14.1 µM, 43, 2.1, 4.5045 and 14.6735%.
`CC(/C=C(\O)c1ccccc1)=N\c1ccc(Br)c(Cl)c1` [Compound 130]: the EC50 under setting [1] is 11.2 µM. This compound also showed a Score (Table 12 compound data) of 43. Besides, under setting [2], the “Fit Curve Class” value is reported as 2.1. The “Fit HillSlope” value (curve fit) came to 4.5045. The “Fit Zero Activity [%]” value under setting [3] amounted to 7.8122%.
The matching figures for `Cc1ccc(NC(=O)COc2ccccc2CNC(C)(C)CC(C)(C)C)cc1` [Compound 131]: 14.1 µM, 43, 2.1, 4.9549 and 8.7591%.
In the case of `Cc1nc2c([nH]1)OC(N)=C(C#N)C21CCN(Cc2ccccc2)CC1` [Compound 132], the “Fit Curve Class” value amounted to 2.1, the “Fit HillSlope” value was 4.9549, the “Fit Zero Activity [%]” value is recorded as 12.8108% and the Score is listed as 43. The EC50 was 12.6 µM.
On to `O=C(CSc1nnc(C2CC2)n1C1CC1)c1cccs1` [Compound 133], for which the EC50 under setting [1] was 10 µM. This compound also yielded a Score (Table 12 compound data) of 42. The “Fit Curve Class” value under setting [2] is on record as 2.1. The “Fit HillSlope” value (curve fit) was 2.7202. For the same compound, the “Fit Zero Activity [%]” value under setting [3] is recorded as −27.5656%.
As for `CSc1ncccc1C(=O)OCC(=O)c1cc(C)n(C)c1C` [Compound 134], under setting [1], the EC50 was 10 µM. This compound displayed a Score (Table 12 compound data) of 42. Further, the “Fit Curve Class” value under setting [2] stood at 2.1. Under “curve fit”, the “Fit HillSlope” value is 4.4495. Under setting [3], the “Fit Zero Activity [%]” value is on record as −22.5632%.
The like results for `CCc1c(C2(O)CCCCC2)[nH]c2ncccc12` [Compound 135] were, in that order, 10 µM, 42, 2.1, 4.9549 and −29.3022%.
The matching figures for `O=C(Nc1ccc(S(=O)(=O)Nc2nccs2)cc1)c1ccccc1OC(F)F` [Compound 137]: 10 µM, 42, 2.1, 4.9549 and −19.2861%.
The like results for `O=C1CCc2cc(S(=O)(=O)Nc3ccc(C(F)(F)F)cc3)cc3c2N1CC3` [Compound 138] were, in that order, 11.2 µM, 42, 2.1, 1.3437 and −27.3652%.
On to `COc1ccccc1C(=O)NCC(=O)/N=N/c1c(O)n(C(C)C)c2ccccc12` [Compound 139], for which the EC50 under setting [1] was 11.2 µM. The compound further had a Score (Table 12 compound data) of 42. In addition, the “Fit Curve Class” value under setting [2] is on record as 2.1. The “Fit HillSlope” value (curve fit) is 4.5045. For the same compound, the “Fit Zero Activity [%]” value under setting [3] worked out at 14.712%.
The like results for `Cn1ccc(C(=O)Nc2cccnc2Cl)n1` [Compound 140] were, in that order, 10 µM, 42, 2.2, 2.7868 and −4.0391%.
As to `COC(=O)c1ccc(C2C(C(=O)c3cc4ccccc4o3)=C(O)C(=O)N2CCN2CCOCC2)cc1` (centres unmarked) [Compound 141], under setting [1], the EC50 was 10 µM. Besides, under “Table 12 compound data”, the Score was found to be 42. Besides, the “Fit Curve Class” value under setting [2] is given as 2.1. For the same compound, where the note is “curve fit”, the “Fit HillSlope” value is reported as 4.9549. Besides, under setting [3], the “Fit Zero Activity [%]” value was −17.8968%.
The matching figures for `COc1cc(NC(=O)C2C3C=CC(C3)C2C(=O)O)ccc1NC(=O)c1ccccc1` (centres unmarked) [Compound 142]: 8.91 µM, 42, 2.1, 2.4064 and −18.7775%.
Regarding `COCc1c(C(=O)N/N=C(\C)c2ccc(OCc3ccccc3)cc2)nnn1-c1nonc1N` [Compound 143], the EC50 under setting [1] is 10 µM. This compound also returned a Score (Table 12 compound data) of 42. In addition, under setting [2], the “Fit Curve Class” value worked out at 2.1. Where the note is “curve fit”, the “Fit HillSlope” value worked out at 4.4495. Also, the “Fit Zero Activity [%]” value under setting [3] was 4.6719%.
The matching figures for `O=C(Nc1ccc(N2CCN(C(=O)c3ccccc3F)CC2)cc1)c1cncc(Br)c1` [Compound 144]: 12.6 µM, 42, 2.1, 4.095 and 9.7776%.
The matching figures for `COc1cc(NC(=O)CN(C)S(=O)(=O)c2ccc3c(c2)CC(C)N3C(C)=O)cc(OC)c1OC` (centres unmarked) [Compound 145]: 10 µM, 42, 2.2, 4.9549 and 0.4668%.
As for `CC(=O)c1ccc(N(C(=O)CNC(=O)c2ccco2)C(C(=O)NC2CCCC2)c2ccc(C)o2)cc1` (centres unmarked) [Compound 146], the EC50 under setting [1] is 10 µM. This compound registered a Score (Table 12 compound data) of 42. Also, the “Fit Curve Class” value under setting [2] amounted to 2.1. The “Fit HillSlope” value (curve fit) is on record as 4.9549.
For `Cc1nnc(NC(=O)CSc2nnc(CCNC(=O)c3ccccc3F)n2C)s1` [Compound 147], under setting [1], the EC50 is 11.2 µM. This compound also returned a Score (Table 12 compound data) of 42. Moreover, the “Fit Curve Class” value under setting [2] was found to be 2.1. The “Fit HillSlope” value (curve fit) is 2.0937. Also, under setting [3], the “Fit Zero Activity [%]” value is on record as 1.0531%.
The matching figures for `COc1ccc(CCNC(=O)Cn2nnc(C(=O)Nc3ccc(Br)cc3)c2N)cc1OC` [Compound 148]: 11.2 µM, 42, 2.1, 2.3531 and −28.7719%.
For the compound `C/C(=N\NC(=O)c1cc(C)oc1C)c1ccc2ccccc2c1` [Compound 149], the EC50 under setting [1] was 8.91 µM. For the same compound, under “Table 12 compound data”, the Score came out at 42. The “Fit Curve Class” value under setting [2] amounted to 2.2. Besides, for the setting “curve fit”, the “Fit HillSlope” value came out at 1.111. Further, under setting [3], the “Fit Zero Activity [%]” value is reported as −1.9678%.
The like results for `CC(C)c1ccc(NC(=O)CN2C(=O)c3ccccc3S2(=O)=O)cc1` [Compound 150] were, in that order, 10 µM, 42, 2.2, 4.5045 and −0.2112%.
The like results for `CCCCC(C(=O)NC1CCCC1)N(C(=O)c1snc(C(N)=O)c1N)c1ccc(C)cc1` (centres unmarked) [Compound 151] were, in that order, 10 µM, 42, 2.1, 3.132 and −26.3814%.
The like results for `COc1ccc(S(=O)(=O)Nc2ccc(S(=O)(=O)Nc3nccs3)cc2)cc1` [Compound 152] were, in that order, 12.6 µM, 42, 2.2, 1.1341 and −8.4801%.
In the case of `Cc1cc(C(=O)Nc2cccc3ccccc23)c(C)o1` [Compound 153], the EC50 under setting [1] is 7.94 µM. This compound showed a Score (Table 12 compound data) of 42. In addition, the “Fit Curve Class” value under setting [2] stood at 2.1. Under “curve fit”, the “Fit HillSlope” value amounted to 1.5095. The “Fit Zero Activity [%]” value under setting [3] is −21.2671%.
The matching figures for `CC1(C)Cc2c(cnn2-c2cccc(F)c2)C(NC(=O)CCc2cnccn2)C1` (centres unmarked) [Compound 154]: 3.16 µM, 42, 2.1, 0.9 and −46.353%.
The matching figures for `Cc1c(C(=O)N2CCCCC2)c(S(=O)(=O)Nc2cccc(Br)c2)c(C)n1C` [Compound 155]: 10 µM, 42, 2.1, 3.99 and −32.1225%.
On to `O=S(=O)(N/C(=N/C1CCCCC1)c1ccccc1F)c1ccccc1` [Compound 156], for which, under setting [1], the EC50 was 10 µM. Where the note is “Table 12 compound data”, this compound showed a Score of 42. For the same compound, under setting [2], the “Fit Curve Class” value was 2.2. Besides, the “Fit HillSlope” value (curve fit) is listed as 2.5334. Also, the “Fit Zero Activity [%]” value under setting [3] is −0.0336%.
The matching figures for `O=[N+]([O-])c1cccc(S(=O)(=O)N2CCN(S(=O)(=O)N3CCOCC3)CC2)c1` [Compound 158]: 10 µM, 42, 2.2, 1.9282 and −0.5234%.
